Reference: patent publication US20140130191A1, “METHODS FOR TREATING IMMUNE-MEDIATED DISEASES OF THE NERVOUS SYSTEM ADMINISTERING A COMPOUND COMPRISING AGENTS THAT INHIBIT PROKINETICIN RECEPTORS ACTIVITY” (FONDAZIONE I.R.C.C.S. ISTITUTO NEUROLOGICO "CARLO BESTA", priority 2011, published 2014)

What was measured:
[1] = system: relapsing-remitting PLP139-151 induced EAE in SJL mice; assay: Relapsing-remitting EAE in SJL mice, preventive treatment regimen; assay type: in vivo; conditions: for Incidence (%): PLP139-151 in CFA; for severity of the disease (in words): preventive treatment, 500 μg/kg
Excerpt: (§1) The relapsing-remitting EAE model was obtained in female SJL mice by immunization with myelin proteolipid protein fragment 139-151 (PLP139-151) in complete Freund's adjuvant (CFA) [Pedotti et al., Nat Immunol 2001]. The chronic EAE model was obtained in C57BL/6 mice as mentioned before.
(§2) We used non-peptide prokineticin receptors antagonist drugs called PC1 and PC7 (whose chemical structure is shown in FIG. 1) to chronically treat the mice starting both from the time of induction of EAE (day 0; preventive treatment) and from the onset of the first symptoms of EAE (day 10-12, approximately; therapeutic treatment).
(§3) With reference to FIG. 4, the non-peptide prokineticin receptor 1 and 2 antagonist PCI was administered intraperitoneally to 8-12 week old female SJL mice in which EAE had been induced by immunization with PLP139-151 (100 μg/mouse) in CFA. The PC1 was given at a dose of 500 μg/kg (n=10). As a control, an equal amount of saline solution was injected (vehicle) (n=10). The treatments began at the time of induction of EAE (preventive treatment), or, more specifically, 4 hours after the induction of EAE. Ten mice per group were used. The graph represents the average daily disease score±standard error of the mean (SEM). A scale of 0 to 5 was used to attribute the score, where 0 is the absence of symptoms and 5 is death (as described in Pedotti et al, Nat Immunol 2001). *p<0.05 for two-tailed unpaired Student's t test vs Control. The results are representative of three consecutive experiments that gave similar results.
as §3, with “6,” for “4,”, “PC-7” for “PCI”, “PC7” for “PC1”, “μg /kg” for “μg/kg”, “(SEM).” for “(SEM). A scale of 0 to 5 was used to attribute the score, where 0 is the absence of symptoms and 5 is death (as described in Pedotti et al, Nat Immunol 2001). *p<0.05 for two-tailed unpaired Student's t test vs Control.”

splenocytes = assay: T-cell response in splenocytes of mice with relapsing-remitting EAE, restimulated in vitro with PLP139-151; assay type: cell-based
Experimental: With reference to FIG. 5, 8-12 week old female SJL mice in which EAE had been induced by immunization with PLP139-151 in CFA were preventively treated (day 0) with PC1 at a dose of 500 μg/kg per day, or with vehicle as described in FIG. 4. The splenocytes were obtained 35 days after immunization with PLP139-151, and were restimulated in vitro with the antigen PLP139-151 at different concentrations or with the medium.
To assay proliferation, after 48 hours of incubation with 5% Co2 at 37° C., the cultures were loaded for 18 hours with 0.5 μCi 3H-thymidine per well. To assay cytokine production, splenocytes were restimulated in vitro with the antigen PLP139-151 at different concentrations or with the medium. The concentration of Interferon-gamma (IFN-gamma), tumour necrosis factor (TNF), Interleukine-6 (IL-6), IL-17, IL-4, and IL-10 was determined in duplicate using the ELISA technique (ELISA DuoSet, Pharmingen, CA). The results are representative of two consecutive experiments that gave similar results.

DLN cells [2] = assay: T-cell response in draining lymph node cells of mice with chronic EAE, restimulated in vitro with MOG35-55; assay type: cell-based; conditions: restimulated with MOG35-55, vs vehicle
Experimental: With reference to FIG. 11, 8-12 week old female C57B1/6 mice in which chronic EAE had been induced by immunization with MOG35-55 were preventively treated (day 0) with PC-7 at a dose of 500 μg/kg per day or with a vehicle as described in the previous experiments. The draining lymph nodes (DLN, inguinal and axillary) were obtained 10 days after immunization with MOG35-55. To assay proliferation, the DLN cells were restimulated in vitro with MOG35-55 at different concentrations, with Concanavalin A (2 μg/ml), or with the medium. Data are expressed as mean cpm±SEM, ng/ml±SEM, or pg/ml±SEM.
(§4) After 48 hours of incubation with 5% Co2 at 37° C., the cultures were loaded for 18 hours with 0.5 μCi 3H-thymidine per well.
To assay cytokine production, DLN cells were restimulated in vitro with MOG35-55 at different concentrations or with the medium.

DLN cells [3] = assay: T-cell response in draining lymph node cells of mice with relapsing-remitting EAE, restimulated in vitro with PLP139-151; assay type: cell-based; conditions: restimulated with PLP139-151, vs vehicle
Experimental: With reference to FIG. 8, 8-12 week old female SJL mice in which EAE had been induced by immunization with PLP139-151 in CFA were preventively treated (day 0) with PC-7 at a dose of 500 μg/kg per day or with vehicle as described in the previous experiments. The draining lymph nodes (DLN, inguinal and axillary) were obtained 7 days after immunization with PLP139-151. To assay proliferation, the DLN cells were restimulated in vitro with the antigen PLP139-151 at different concentrations, with Concanavalin A (2 μg /ml), or with the medium.
as §4
To assay cytokine production, DLN cells were restimulated in vitro with the antigen PLP139-151 at different concentrations or with the medium. Data are expressed as mean cpm±SEM, ng/ml±SEM, or pg/ml±SEM.

[4] = system: chronic MOG35-55 induced EAE in C57B1/6 mice; assay: Chronic EAE in C57B1/6 mice, preventive treatment regimen; assay type: in vivo
Excerpt: (§5) In the study conducted we verified the expression of PK-2 and its receptors PK-R1 and PK-R2 in the experimental model of chronic EAE, an experimental model of MS. The chronic EAE model was obtained in C57B1/6 mice by immunization with myelin oligodendrocyte glycoprotein peptide fragment 35-55 (MOG35-55) and PTX (Pertussis toxin) [Pedotti et al., PNAS 2003]. During chronic EAE, we observed an increase of mRNA expression of PK-2 by lymph node cells and purified CD4+ T cells in C57B1/6 mice during the disease. This increase of mRNA expression started before the onset of the disease and is less significant after its onset (FIG. 2). We observed also an important increase of the levels of the protein PK-2 in the serum of mice with MOG35-55 induced EAE (FIG. 3). This increase of PK-2 was accompanied by a dramatic reduction of PK-R2 expression in lymph node cells and CD4+T cells. […] Thus, the couple PK-2/PK-R1 seemed to play an important role during EAE, the experimental model of MS.
as §2
With reference to FIG. 9, the non-peptide prokineticin receptor 1 and 2 antagonist PC7 was administered intraperitoneally to 8-12 week old female C57B1/6 mice in which chronic EAE had been induced by immunization with MOG35-55 (100 μg/mouse) and PTX (400 ng/mouse). The PC-7 was given at a dose of 500 μg/kg (n=10). As a control, an equal amount of saline solution was injected (vehicle) (n=10). The treatments began at the time of induction of EAE (preventive treatment), or, more specifically, 4 hours after the induction of EAE. Ten mice per group were used. The graph represents the average daily disease score±standard error of the mean (SEM). The results are representative of three consecutive experiments that gave similar results.

[5] = system: chronic MOG35-55 induced EAE in C57B1/6 mice; assay: Chronic EAE in C57B1/6 mice, therapeutic treatment regimen; assay type: in vivo
Excerpt: as §5, §2
With reference to FIG. 10, the non-peptide prokineticin receptor 1 and 2 antagonist PC-7 was administered intraperitoneally to 8-12 week old female C57B1/6 mice in which chronic EAE had been induced by immunization with MOG35-55 (100 μg/mouse) and PTX (400 ng/mouse). The PC-7 was given at a dose of 500 μg /kg (n=10). As a control, an equal amount of saline solution was injected (vehicle) (n=10). The treatments began on the onset of the first symptoms of the disease (day 12). Ten mice per group were used. The graph represents the average daily disease score±standard error of the mean (SEM). The results are representative of two consecutive experiments that gave similar results.

[6] = system: relapsing-remitting PLP139-151 induced EAE in SJL mice; assay: Relapsing-remitting EAE in SJL mice, therapeutic treatment regimen; assay type: in vivo
Excerpt: as §1, §2
With reference to FIG. 7, the non-peptide prokineticin receptor 1 and 2 antagonist PC-7 was administered intraperitoneally to 8-12 week old female SJL mice in which EAE had been induced by immunization with PLP139-151 (100 μg/mouse) in CFA. The PC-7 was given at a dose of 500 μg/kg (n=10). As a control, an equal amount of saline solution was injected (control) (n=10). The treatments began on the appearance of the first symptoms of the disease (Day 11). Ten mice per group were used. The graph represents the average daily disease score±standard error of the mean (SEM). The results are representative of three consecutive experiments that gave similar results.

[7] = SJL mice, 500 μg/kg i.p., preventive, Table 1
[8] = splenocytes, restimulated with PLP139-151, ELISA, vs vehicle
[9] = DLN cells, relapsing-remitting EAE
[10] = C57B1/6 mice, 500 μg/kg i.p., preventive
[11] = C57B1/6 mice, 500 μg/kg i.p. from first symptoms (day 12), therapeutic
[12] = SJL mice, 500 μg/kg i.p. from first symptoms (Day 11), therapeutic
[13] = SJL mice, 500 μg/kg i.p., preventive, Table 2

CCc1ccc(Cn2c(=O)nc(NCCNC(=N)N)n(Cc3ccc(OC)cc3)c2=O)cc1 [PC1]
Cumulative disease score [1, 7]: 24.8 ± 9.0 *
Onset of disease (Day) [1, 7]: 12.4 ± 1.0 * Day
Peak of disease Severity ([1]; SJL mice, 500 μg/kg i.p., preventive, score scale 0 to 5, Table 1): 1.7 ± 0.4 *
Incidence (%) ([1]; SJL mice, 500 μg/kg intraperitoneally from induction of EAE (preventive), Table 1): 70% (7/10)
severity of the disease (in words) ([1]; relapsing-remitting EAE): reduction in the severity of the disease
onset of the disease (in words) ([1]; relapsing-remitting EAE, treated from the time of induction of EAE): delay in the onset of the disease
peptide-specific T cells proliferation (splenocytes; splenocytes 35 days after immunization, mice treated 500 μg/kg per day preventively, restimulated with PLP139-151, vs vehicle): reduction
production of IFN-gamma (splenocytes; [8]): reduction
production of IL-4 (splenocytes; [8]): increasing
production of TNF (splenocytes; [8]): reduction

COc1ccc(Cn2c(NCCNC(=N)N)nc(=O)n(Cc3ccc(F)cc3)c2=O)cc1 [PC7]
peptide-specific T cells proliferation (DLN cells [2]; DLN cells 10 days after immunization, mice treated 500 μg/kg per day preventively): reduction
production of IFN-gamma (DLN cells [2]; DLN cells, chronic EAE): reduction
production of IL-10 (DLN cells [2]; DLN cells, chronic EAE): increasing
production of IL-17 (DLN cells [2]; DLN cells, chronic EAE): reduction
production of TNF (DLN cells [2]; DLN cells, chronic EAE): reduction
proliferation of lymph node cells (DLN cells [3]; DLN cells 7 days after immunization, mice treated 500 μg/kg per day preventively): reduced proliferation
levels of IL-17A (DLN cells [3]; [9]): slight reduction
levels of interleukin IL-6 (DLN cells [3]; [9]): increase
levels of interleukin IL-10 (DLN cells [3]; [9]): increase
production of IFN (DLN cells [3]; [9]): significantly lower
production of TNF (DLN cells [3]; [9]): significantly lower
Cumulative disease score [4, 10]: 41.1 ± 11.8
Onset of disease [4, 10]: 16.8 ± 1.7 days
Peak in disease Severity [4, 10]: 2.5 ± 0.5
Incidence (%) ([4]; C57B1/6 mice, MOG35-55 and PTX, 500 μg/kg i.p. from induction of EAE (preventive)): 90% (9/10)
severity of the disease (in words) ([4]; chronic EAE, preventive treatment): significant reduction in the severity of the disease
Cumulative disease score [5, 11]: 50.9 ± 11.8
Incidence (%) [5, 11]: 100% (10/10)
Peak in disease Severity [5, 11]: 3.3 ± 0.3
severity of the disease (in words) ([5]; chronic EAE, therapeutic treatment, 500 μg/Kg): significant reduction in the severity of the disease
Cumulative disease score [6, 12]: 42.3 ± 7.5
Incidence (%) [6, 12]: 100% (10/10)
Peak in disease Severity [6, 12]: 2.6 ± 0.3
severity of the disease (in words) ([6]; relapsing-remitting EAE, therapeutic treatment, 500 μg/kg): significantly reduces the severity of the disease
Cumulative disease score [1, 13]: 21.2 ± 5.1 *
Onset of disease (Day) [1, 13]: 11.4 ± 0.1 * Day
Peak in disease Severity [1, 13]: 2.2 ± 0.3 *
Incidence (%) ([1]; SJL mice, 500 μg/kg i.p. from induction of EAE (preventive), Table 2): 90% (9/10)
severity of the disease (in words) ([1]; relapsing-remitting EAE): significantly reduces the severity of the disease
